Measurements from patent publication EP1484329A1, “Indole derivatives with apoptosis inducing activity” (Zentaris GmbH, priority 2003, dated 2004).
≈ marks a conversion by molar mass, not a printed value. Read-outs that look alike come from different tables or passages of the source.

Experiments:
RKOp27 = assay: XTT proliferation assay, RKOp27 cell system with / without induced p27kip1 expression; assay type: cell-based; settings: Homo sapiens
Text: (§1) Die Substanzen 1,2, 4-6 wurden in einem Proliferationstest an etablierten Tumorzelllinien auf ihre anti-proliferative Aktivität hin untersucht (D.A. Scuderio et al. Cancer Res. 1988, 48, 4827-4833). Der verwendete Test bestimmt die zelluläre Dehydrogenase-Aktivität und ermöglicht eine Bestimmung der Zellvitalität und indirekt der Zellzahl. Bei den verwendeten Zelllinien handelt es sich um die humane Cervixkarzinom Zelllinie KB/HeLa (ATCC CCL17), die ovariale Adenokarzinomzelllinie SKOV-3 (ATCC HTB77), die humane Glioblastom Zelllinie SF-268 (NCI 503138) und die Lungenkarzinom Zelllinie NCI-H460 (NCI 503473). Des weiteren wurde zur Untersuchung der Zellzyklus-spezifischen Wirkung der Substanz ein RKOp27 Zellsystem verwendet (M. Schmidt et al. Oncogene19(20):2423-9, 2000). Bei RKO handelt es sich um eine humane Kolonkarzinomlinie, in der der Zellzyklusinhibitor p27 ^kip1 mittels des Ecdyson Expressionssystems induziert zur Expression gebracht und zu einem Zellzyklusarrest spezifisch in G2 geführt werden kann. Eine unspezifisch wirkende Substanz hemmt die Proliferation unabhängig davon, ob die RKO Zelle in G1 oder G2 arretiert ist oder nicht. Zellzyklus-spezifische Substanzen wie beispielsweise Tubulininhibitoren sind hingegen nur dann zytotoxisch, wenn Zellen nicht arretiert sind und der Zellzyklus durchlaufen wird. In Tabelle 1 ist die zytotoxische bzw. wachstumshemmende Aktivität der beschriebenen Verbindungen mit / ohne Expression von p27^kip1gezeigt. Die getesteten Verbindungen zeigten im induzierten Zustand von p27^kiP1 keine zytotoxische Aktivität. Die Ergebnisse zeigen eine sehr potente Hemmung der Proliferation ausgewählter Tumorzelllinien durch die genannten Substanzen.

DU145 = assay: XTT proliferation assay, DU145; assay type: cell-based, human; settings: Homo sapiens, read-out: XTT Proliferationsassay, EC50 DU145
Text: as §1, with “Substanzen. Tabelle 1:” for “Substanzen.”
(§2) Zur weiteren Charakterisierung wurden die Substanzen 1-6 an einem Panel von 7 humanen Tumorzelllinien auf ihre anti-proliferative Wirkung hin untersucht. Bei den untersuchten Zelllinien handelt es sich um die humanen Glioma Zelllinien A172 (ATCC CRL-1620) und U118 (ATCC HTB-15), die humane Lungenkarzinom Zelllinie A549, das humane epidermoide Karzinom A431 (ATCC CRL-2592), die humanen Prostatakarzinom Zelllinien DU145 (ATCC HTB-81) und PC3 (ATCC CRL-1435) und die humane Kolon Adenokarzinomzelllinie HT29 (ATCC HTB-38). Es handelt sich hierbei um sehr gut charakterisierte, etablierte Zelllinien, die von ATCC, ECACC bzw. NCI erhalten und in Kultur genommen wurden. Die in Tab. […]

PC3 = assay: XTT proliferation assay, PC3; assay type: cell-based, human; settings: Homo sapiens, read-out: XTT Proliferationsassay, EC50 PC3
Text: as §1, with “Substanzen. Tabelle 1:” for “Substanzen.”
as §2

A172 = assay: XTT proliferation assay, A172; assay type: cell-based, human; settings: Homo sapiens, read-out: XTT Proliferationsassay, EC50 A172
Text: as §1, with “Substanzen. Tabelle 1:” for “Substanzen.”
as §2

U118MG = assay: XTT proliferation assay, U118MG; assay type: cell-based; settings: Homo sapiens, U-118-MG; read-out: XTT Proliferationsassay, EC50 U118MG
Text: as §1, with “Substanzen. Tabelle 1:” for “Substanzen.”
as §2

P388ADR = assay: XTT proliferation assay, P388ADR (doxorubicin-resistant); assay type: cell-based, murine
Text: as §1, with “Substanzen. Tabelle 1:” for “Substanzen.”
Zur weiteren Charakterisierung wurden die Substanzen 1,2,4-6 gegenüber multi drug resistenten Zelllinien im Vergleich zu den nicht-resistenten Wildtypzelllinien untersucht.
Bei den untersuchten Zelllinien handelt es sich um die murine L1210, die akute myeloische Leukaemie Zelllinie LT12 und um die resistenten Linien L1210/mdr und LT12/mdr. Außerdem wurden die murine P388 Zelllinie (methyl-cholanthreneinduced lymphoid neoplasm) sowie die Doxorubicin-resistente P388 als Testsysteme herangezogen.

Rindertubulin = assay: Inhibition of tubulin polymerisation in vitro; assay type: biochemical, Rind; settings: Tubulin with 30% MAPs; mean of two independent experiments
Text: In diesem Test wird durch Zyklen von Polymerisation und Depolymerisation aufgereinigtes Tubulin eingesetzt, welches durch Zugabe von GTP und Erwärmung zur Polymerisation gebracht wird. […]

DNA-Topoisomerase II = DNA-Topoisomerase II (Homo sapiens, UniProt P11388); assay: kDNA decatenation assay for topoisomerase II activity; assay type: biochemical; settings: tested at 100, 31.6 and 10 µM
Method: In diesem von P. Arimondo (Anti-Cancer Drug Design 2000, 15 (6), 413-421) beschriebenen Assay wird kDNA mit humaner DNA-Topoisomerase II in Abwesenheit oder Gegenwart der Testverbindungen behandelt. Die Testung der erfindungsgemäßen Verbindungen 2, 4 und 5 erfolgte hierbei bei drei unterschiedlichen Konzentrationen (100, 31.6 und 10 µM). Zum Vergleich setzte man eine Positivkontrolle und die Referenzverbindungen m-Amsacrin (m-Amsa), Paclitaxel und Vincristine bei einer jeweiligen Konzentration von 100µM ein.
Zu 1µL vorgelegter Testsubstanz (20fach konzentriert in 100% DMSO) werden 2µL 10x Assay Puffer, 1µL kDNA (200ng), 0.5µL human Topoisomerase II (1 unit) und 15,5µL H2O pipettiert und gemischt.
Die Reaktionsansätze werden in den auf 37°C vorgeheizten Heizblock gestellt und 10min bei 37°C inkubiert. Die Inkubation wird nach Zugabe von 4µL 5x Stop Puffer gestoppt und nachfolgend die Substanz mit CIA extrahiert. Danach werden 20µL des Überstandes auf ein 1 % Agarosegel mit 0,25µg/mL Ethidiumbromid aufgetragen und 1h bei 100V aufgetrennt. Zum Schluss wird das Gel unter UV-Anregung fotografiert (s. Graph 1). Die Quantifizierung der Inhibierung der Decatenation von kDNA erfolgt mit der GeIPro® Analyzer Software (s. Graph 2) [formula] [formula]

[1] = RKOP27, without expression of p27kip1, read-out: XTT Proliferationsassay, EC50 RKOP27
[2] = RKOP27 ind., p27kip1 expression induced (cells arrested), read-out: XTT Proliferationsassay, EC50 RKOP27 ind.
[3] = Mus musculus, P388/ADR; read-out: XTT Proliferationsassay, EC50 P388ADR

Sequence of DNA-Topoisomerase II (P11388 whole entry): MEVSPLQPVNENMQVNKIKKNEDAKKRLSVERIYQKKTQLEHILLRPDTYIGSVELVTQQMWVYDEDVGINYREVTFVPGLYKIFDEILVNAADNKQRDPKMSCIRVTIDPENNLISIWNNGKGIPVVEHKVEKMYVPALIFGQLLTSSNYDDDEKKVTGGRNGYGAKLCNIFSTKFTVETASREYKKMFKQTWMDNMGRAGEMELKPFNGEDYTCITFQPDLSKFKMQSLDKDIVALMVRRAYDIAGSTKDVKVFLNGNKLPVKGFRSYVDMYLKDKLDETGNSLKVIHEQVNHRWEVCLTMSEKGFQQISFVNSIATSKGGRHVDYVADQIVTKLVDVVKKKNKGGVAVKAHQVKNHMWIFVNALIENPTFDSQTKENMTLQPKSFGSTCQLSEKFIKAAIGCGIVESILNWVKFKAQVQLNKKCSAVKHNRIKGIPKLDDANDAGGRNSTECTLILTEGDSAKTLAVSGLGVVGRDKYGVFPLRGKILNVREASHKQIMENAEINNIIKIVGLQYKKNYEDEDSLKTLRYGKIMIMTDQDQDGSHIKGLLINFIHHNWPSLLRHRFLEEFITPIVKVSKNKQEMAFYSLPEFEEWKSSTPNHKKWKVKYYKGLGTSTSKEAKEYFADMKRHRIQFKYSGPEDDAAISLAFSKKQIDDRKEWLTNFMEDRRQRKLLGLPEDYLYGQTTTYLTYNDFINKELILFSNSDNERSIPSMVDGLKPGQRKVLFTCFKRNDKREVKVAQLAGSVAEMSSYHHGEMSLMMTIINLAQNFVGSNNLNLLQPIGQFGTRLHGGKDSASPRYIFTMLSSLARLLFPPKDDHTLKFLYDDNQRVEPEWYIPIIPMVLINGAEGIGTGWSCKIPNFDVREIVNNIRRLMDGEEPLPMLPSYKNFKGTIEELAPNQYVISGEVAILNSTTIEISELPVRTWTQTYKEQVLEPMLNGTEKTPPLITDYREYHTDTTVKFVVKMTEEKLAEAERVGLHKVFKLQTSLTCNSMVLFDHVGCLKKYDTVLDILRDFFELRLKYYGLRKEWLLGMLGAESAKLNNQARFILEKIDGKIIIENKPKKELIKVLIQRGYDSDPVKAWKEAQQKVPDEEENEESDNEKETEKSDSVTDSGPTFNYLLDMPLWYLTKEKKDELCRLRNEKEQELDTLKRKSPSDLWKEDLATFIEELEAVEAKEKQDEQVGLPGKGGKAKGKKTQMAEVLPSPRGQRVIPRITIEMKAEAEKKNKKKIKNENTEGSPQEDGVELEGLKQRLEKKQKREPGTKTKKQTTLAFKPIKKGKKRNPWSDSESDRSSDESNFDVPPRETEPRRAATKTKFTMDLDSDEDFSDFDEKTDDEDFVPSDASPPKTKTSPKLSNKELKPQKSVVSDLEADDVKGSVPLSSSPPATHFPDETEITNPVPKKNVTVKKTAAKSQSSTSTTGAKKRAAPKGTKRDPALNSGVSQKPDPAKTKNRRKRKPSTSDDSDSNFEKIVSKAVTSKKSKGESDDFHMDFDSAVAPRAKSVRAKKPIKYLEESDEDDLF

| SMILES | EC50 (RKOp27; [1]) | EC50 (RKOp27; [2]) | EC50 (DU145; DU-145) | EC50 (PC3; PC-3) | EC50 (A172; A 172) | EC50 (U118MG) | EC50 (P388ADR; Mus musculus, P388/ADR, read-out: XTT Proliferationsassay, EC50 P388ADR) | Hemmung der Tubulin-Polymerisation, EC50 (Rindertubulin) | Hemmung der Topoisomerase II (kDNA Assay) (DNA-Topoisomerase II) | EC50 (DU145; DU-145, DU145) | EC50 (PC3; PC-3, PC3) | EC50 (A172; A 172, A172) | EC50 (P388ADR; [3]) |
| --- | --- | --- | --- | --- | --- | --- | --- | --- | --- | --- | --- | --- | --- |
| O=C(Nc1ccc2ncccc2c1)C(=O)c1cn(Cc2ccc(Cl)cc2)c2ccccc12 [Verbindung 2, 2-[1-(4-Chlor-benzyl)-1 H-indol-3-yl]-2-oxo-N-chinolin-6-yl-acetamid] | 0.047 µg/mL (≈ 0.107 µM) | > 3.16 µg/mL | 0.047 µg/mL (≈ 0.107 µM) | 0.016 µg/mL (≈ 0.0364 µM) | 0.024 µg/mL (≈ 0.0546 µM) | 0.022 µg/mL (≈ 0.05 µM) | 0.056 µg/mL (≈ 0.127 µM) | 1.23 µg/mL | signifikante Hemmung der Topoisomerase II |  |  |  |  |
| O=C(Nc1ccc2ncccc2c1)C(=S)c1cn(Cc2ccc(Cl)cc2)c2ccccc12 [Verbindung 4, 2-[1-(4-Chlorbenzyl)-1 H-indol-3-yl]-N-chinolin-6-yl-2-thioxoacetamid] | 0.053 µg/mL (≈ 0.116 µM) | > 3.16 µg/mL |  |  |  | 0.03 µg/mL (≈ 0.0658 µM) |  | 0.97 µg/mL | signifikante Hemmung der Topoisomerase II | 0.045 µg/mL (≈ 0.0987 µM) | 0.027 µg/mL (≈ 0.0592 µM) | 0.043 µg/mL (≈ 0.0943 µM) | 0.051 µg/mL (≈ 0.112 µM) |
| O=C(Nc1cnc2nccnc2c1)C(=O)c1cn(Cc2ccc(Cl)cc2)c2ccccc12 [Verbindung 5, 2-[1-(4-Chlor-benzyl)-1H-indol-3-yl]-2-oxo-N-pyrido[2,3-b]pyrazin-7-yl-acetamid] | 0.065 µg/mL (≈ 0.147 µM) | > 3.16 µg/mL |  |  |  | 0.013 µg/mL (≈ 0.0294 µM) |  | 0.71 µg/mL | Inhibierung der Topoisomerase II | 0.035 µg/mL (≈ 0.0792 µM) | 0.03 µg/mL (≈ 0.0679 µM) | 0.019 µg/mL (≈ 0.043 µM) | 0.019 µg/mL (≈ 0.043 µM) |
